In patent US8933195B2, “Histone deacetylase inhibitors and synthetic method thereof and use thereof in manufacture of medicaments” (Nanjing Yoko Biomedical R & D Ltd., priority 2011, dated 2015):
Read-outs that look alike come from different tables or passages of the source.

Assays:
Incap = assay: MTT cancer cell growth inhibition; assay type: cell-based; conditions: 72 h
[1] = tested on: BGC-823 (human gastric cancer cells); assay: MTT cancer cell growth inhibition; assay type: cell-based; conditions: 72 h, read-out: GI50 BGC823
Excerpt: (§1) 1. Experimental principles: the inhibition of cancer cell growth with compounds is detected by an MTT method. The principle of the MTT method is as follows: yellow thiazolyl blue may penetrate through cell membranes and enter into cells, succinate dehydrogenase in living cell mitochondria may reduce exogenous MTT into water-insoluble ianthinus acicular Formazan crystals which deposit in the cells, the crystals can be dissolved with dimethyl sulfoxide (DMSO), the optical density of the crystals is detected with an enzyme-linked immunometric meter at the wavelength of 490 nm/570 nm, and the number of cells can be indirectly reflected.
(§2) 2. Experimental materials: the used cancer cell lines are Hela (human cervical cancer cells), MCF-7 (human breast cancer cells), BGC-823 (human gastric cancer cells), A549 (human lung cancer cells), HT1080 (human fibrosarcoma cells), A431 (human epidermal squamous cell carcinoma cells), HUVEC (human umbilical vein endothelial cells), DU145 (human prostate cancer cells), K562 (human leukemia cells), U937 (human leukemia cells), Pac-1 (human pancreatic cancer cells), and MOLT-4 (human acute lymphoblastic leukemia cells), which are cultured with a DMEM+10% FBS culture medium or a 1640+10% FBS culture medium, respectively.
(§3) Experimental groups: 190 μl cell suspension+10 μl pharmaceuticals in different concentrations (the final concentration is 10^−5-10^−10M)
(§4) Negative control group: 190 μl cell suspension+10 μl 2% DMSO (the final concentration of DMSO is 0.1%)
(§5) a) Cells are inoculated on a 96-pore plate, with 1500 cells and 190 μl for each hole, and cultured overnight in a 5% CO2 incubator at 37.
(§6) b) 10 μl of different pharmaceuticals is added into each hole the next day, with the final concentration of the pharmaceuticals of 10^−5-10^−10M and three parallel holes, and incubated for 72 h in a 5% CO2 incubator at 37.
(§7) c) 20 μl of 5 mg/mL MTT is added into each hole, and incubated for 4 h in a 5% CO2 incubator at 37.
(§8) d) Supernatant is removed. 100 μl of DMSO is added into each hole and vibrated.
(§9) e) The reading is 570 nm. The cell survival rate is calculated.

[2] = tested on: U937 (human leukemia cells); assay: MTT cancer cell growth inhibition; assay type: cell-based; conditions: U-937, 72 h
Excerpt: as §1, §2, §3, §4, §5, §6, §7, §8, §9

[3] = tested on: HT1080 (human fibrosarcoma cells); assay: MTT cancer cell growth inhibition; assay type: cell-based; conditions: HT-1080, 72 h
Excerpt: as §1, §2, §3, §4, §5, §6, §7, §8, §9

[4] = tested on: A549 (human lung cancer cells); assay: MTT cancer cell growth inhibition; assay type: cell-based; conditions: 72 h
Excerpt: as §1, §2, §3, §4, §5, §6, §7, §8, §9

PANC-1 = assay: MTT cancer cell growth inhibition; assay type: cell-based; conditions: Homo sapiens, 72 h
Excerpt: as §1, §2, §3, §4, §5, §6, §7, §8, §9

[5] = tested on: MCF-7 (human breast cancer cells); assay: MTT cancer cell growth inhibition; assay type: cell-based; conditions: MCF7, 72 h
Excerpt: as §1, §2, §3, §4, §5, §6, §7, §8, §9

[6] = tested on: MOLT-4 (human acute lymphoblastic leukemia cells); assay: MTT cancer cell growth inhibition; assay type: cell-based; conditions: 72 h
Excerpt: as §1, §2, §3, §4, §5, §6, §7, §8, §9

[7] = tested on: Hela (human cervical cancer cells); assay: MTT cancer cell growth inhibition; assay type: cell-based; conditions: 72 h
Excerpt: as §1, §2, §3, §4, §5, §6, §7, §8, §9

[8] = tested on: DU145 (human prostate cancer cells); assay: MTT cancer cell growth inhibition; assay type: cell-based; conditions: DU-145, 72 h
Excerpt: as §1, §2, §3, §4, §5, §6, §7, §8, §9

HDAC1 = HDAC1 (Homo sapiens, UniProt Q13547); assay: Measurement of biochemical activities of HDAC (fluorescently-labeled acetylated lysine substrate)
Procedure: (§10) 1. Measurement principles: the measurement of biochemical activities of compounds is determined according to the degree of the compounds inhibiting the deacylation of HDAC enzyme. After the fluorescently-labeled substrate containing acetylated lysine side chain reacts with the HDAC enzyme, the fluorogenic substrate is deacetylated. After the deacetylated fluorescently-labeled substrate is cracked by the enzyme, a fluorescent substance is released. The fluorescent substance generates emitting light of 460 nm under the excitation of light of 360 nm.
(§11) 2. Detailed steps: the substrate of HDAC is diluted to […] (the reaction concentration is […]) with a reaction buffer. HDAC enzyme is diluted to a proper concentration. The compounds to be detected in different concentrations are added. The mixture reacts for 30 min at 37. Then the developer with the same volume and twice concentration of the substrate is added into the mixture. The mixture is incubated for 15 min at room temperature. Finally, the reading is measured with a micro plate scanner. The excitation light is 360 nm, the emitting light is 460 nm, and the data is processed with Prime 4 software.

HDAC7 = biological target: T1, HDAC7 (Homo sapiens, UniProt Q8WUI4); assay: as above
T1 sequence (Q8WUI4 1-952): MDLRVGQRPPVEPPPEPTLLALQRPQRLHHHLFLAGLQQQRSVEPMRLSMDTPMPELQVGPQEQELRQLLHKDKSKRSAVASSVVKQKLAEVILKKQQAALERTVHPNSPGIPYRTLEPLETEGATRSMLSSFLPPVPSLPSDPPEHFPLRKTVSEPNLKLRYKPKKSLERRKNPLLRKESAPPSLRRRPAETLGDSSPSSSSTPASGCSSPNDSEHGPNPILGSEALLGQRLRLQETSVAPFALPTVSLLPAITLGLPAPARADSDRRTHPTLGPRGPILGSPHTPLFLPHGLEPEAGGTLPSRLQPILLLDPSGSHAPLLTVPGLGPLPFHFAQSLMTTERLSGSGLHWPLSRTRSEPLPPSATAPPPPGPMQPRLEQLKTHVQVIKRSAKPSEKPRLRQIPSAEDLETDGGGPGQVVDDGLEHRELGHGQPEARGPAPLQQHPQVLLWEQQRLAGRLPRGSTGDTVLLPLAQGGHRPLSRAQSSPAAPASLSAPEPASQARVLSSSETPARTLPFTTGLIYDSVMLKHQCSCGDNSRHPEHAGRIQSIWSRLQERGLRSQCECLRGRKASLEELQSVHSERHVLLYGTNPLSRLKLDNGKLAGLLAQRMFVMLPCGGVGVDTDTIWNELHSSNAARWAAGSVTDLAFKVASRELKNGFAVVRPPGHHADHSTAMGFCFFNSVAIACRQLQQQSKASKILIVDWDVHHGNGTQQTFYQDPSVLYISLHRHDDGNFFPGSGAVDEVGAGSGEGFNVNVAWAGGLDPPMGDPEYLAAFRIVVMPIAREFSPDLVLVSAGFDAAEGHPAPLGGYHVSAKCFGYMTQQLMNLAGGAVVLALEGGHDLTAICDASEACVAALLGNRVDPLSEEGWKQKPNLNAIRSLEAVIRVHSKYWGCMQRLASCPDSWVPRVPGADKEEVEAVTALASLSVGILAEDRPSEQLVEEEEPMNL
Procedure: as §10, §11

HDAC1, sequence (Q13547 whole entry, species assumed): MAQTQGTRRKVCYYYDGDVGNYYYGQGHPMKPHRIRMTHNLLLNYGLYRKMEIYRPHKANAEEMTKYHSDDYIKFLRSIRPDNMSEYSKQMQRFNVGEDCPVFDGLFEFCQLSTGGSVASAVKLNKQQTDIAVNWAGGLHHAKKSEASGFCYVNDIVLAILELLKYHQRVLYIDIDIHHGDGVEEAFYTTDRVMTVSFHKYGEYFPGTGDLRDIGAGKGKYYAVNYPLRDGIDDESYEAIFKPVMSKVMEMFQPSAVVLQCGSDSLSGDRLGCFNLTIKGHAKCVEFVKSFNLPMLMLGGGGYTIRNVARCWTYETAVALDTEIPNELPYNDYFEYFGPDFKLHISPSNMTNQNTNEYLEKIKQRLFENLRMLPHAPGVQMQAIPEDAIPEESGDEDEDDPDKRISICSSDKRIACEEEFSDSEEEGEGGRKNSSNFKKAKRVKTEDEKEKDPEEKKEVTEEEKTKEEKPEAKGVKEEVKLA

Row | Compound | GI50 (Incap) | GI50 [1] | GI50 [2] | GI50 [3] | GI50 [4] | GI50 (PANC-1) | GI50 [5] | GI50 [6] | GI50 [7] | GI50 [8] | IC50 (HDAC1) | IC50 HDAC7 (HDAC7) | IC50 (HDAC1; read-out: IC50 HDAC1)
1 | C/C=C1\NC(=O)c2csc(n2)[C@H](C(C)C)NC(=O)C[C@@H](/C=C/CCSC(=O)CCCCCCC)OC(=O)[C@H](C(C)C)NC1=O [Compound 4-1] | 1030 nM | 230 nM | 1560 nM | 850 nM | 540 nM | 1340 nM | 130 nM | 4020 nM | 260 nM | 1650 nM | < 10000 nM | no activity | –
2 | C/C=C1\NC(=O)c2csc(n2)CNC(=O)C[C@@H](/C=C/CCSC(=O)CCCCCCC)OC(=O)[C@H](CC)NC1=O [Compound 1-2] | 70 nM | 20 nM | 4 nM | 100 nM | 300 nM | 200 nM | 50 nM | 30 nM | 100 nM | 4 nM | – | no activity | < 190 nM
3 | C/C=C1\NC(=O)c2csc(n2)CNC(=O)C[C@@H](/C=C/CCSC(=O)CCO)OC(=O)[C@H](C(C)C)NC1=O [Compound 6-5] | 450 nM | 26500 nM | 2660 nM | 1650 nM | 365 nM | 1640 nM | 4120 nM | 268 nM | 540 nM | 695 nM | – | no activity | < 10000 nM
4 | C/C=C1\NC(=O)C2C=NC(=N2)CNC(=O)C[C@@H](/C=C/CCSC(=O)CCCCCCC)OC(=O)[C@H](C(C)C)NC1=O (stereo partly drawn) [Compound 2-4] | 85200 nM | 2600 nM | 18600 nM | 1600 nM | 4500 nM | 4200 nM | 52600 nM | 900 nM | 23000 nM | 6400 nM | – | no activity | < 10000 nM
5 | C/C=C1\NC(=O)C2N=C(CNC(=O)C[C@@H](/C=C/CCSC(=O)CCCCCCC)OC(=O)[C@H](C(C)C)NC1=O)S[C@@H]2C (stereo partly drawn) [Compound 2-3] | 500 nM | 1560 nM | 1230 nM | 40500 nM | 2600 nM | 2650 nM | 21400 nM | 23100 nM | 26500 nM | 560 nM | – | no activity | < 10000 nM
6 | C/C=C1\NC(=O)c2csc(n2)CNC(=O)C[C@@H](/C=C/CCSC(=O)CCCCCCC)OC(=O)[C@H](C(C)C)N(C)C1=O [Compound 5-2] | 5030 nM | 1300 nM | 20 nM | 1050 nM | 240 nM | 21400 nM | 690 nM | 10300 nM | 350 nM | 6410 nM | – | no activity | < 10000 nM
7 | C/C=C1\NC(=O)c2csc(n2)CNC(=O)C[C@@H](/C=C/CCSC(=O)CCCCCCC)OC(=O)[C@H](Cc2cccc3ccccc23)NC1=O [Compound 1-9] | 30 nM | 50 nM | 5 nM | 40 nM | 30 nM | 600 nM | 50 nM | 10 nM | 50 nM | 3 nM | – | no activity | < 10000 nM
8 | C/C=C1\NC(=O)c2csc(n2)CNC(=O)C[C@@H](/C=C/CCSC(=O)CCCCCCCCCCCC)OC(=O)[C@H](C(C)C)NC1=O [Compound 6-3] | 12000 nM | 5000 nM | 10100 nM | 25000 nM | 41000 nM | 890 nM | 56600 nM | 3640 nM | 45000 nM | 13600 nM | – | no activity | < 10000 nM
9 | C/C=C1\NC(=O)c2csc(n2)CNC(=O)C[C@@H](/C=C/CCS)OC(=O)[C@H](C(C)C)NC1=O [Compound 6-1] | 42 nM | 360 nM | 5 nM | 50 nM | 100 nM | 230 nM | 59 nM | 650 nM | 600 nM | 34 nM | – | no activity | < 100 nM
10 | C/C=C1\NC(=O)c2csc(n2)CNC(=O)C[C@@H](/C=C/CCSC(=O)Cc2ccccc2)OC(=O)[C@H](C(C)C)NC1=O [Compound 6-4] | 630 nM | 2550 nM | 6350 nM | 1330 nM | 4600 nM | 1250 nM | 690 nM | 2650 nM | 500 nM | 420 nM | – | no activity | < 10000 nM
11 | C/C=C1\NC(=O)c2csc(n2)[C@H](Cc2ccccc2)NC(=O)C[C@@H](/C=C/CCSC(=O)CCCCCCC)OC(=O)[C@H](C(C)C)NC1=O [Compound 4-3] | 1020 nM | 7120 nM | 650 nM | 3030 nM | 4660 nM | 10 nM | 2550 nM | 30 nM | 1060 nM | 140 nM | – | no activity | < 10000 nM
12 | C/C=C1\NC(=O)C2N=C(CNC(=O)C[C@@H](/C=C/CCSC(=O)CCCCCCC)OC(=O)[C@H](C(C)C)NC1=O)O[C@@H]2C (stereo partly drawn) [Compound 2-2] | 23600 nM | 1600 nM | 10200 nM | 4500 nM | 2000 nM | 600 nM | 2300 nM | 26200 nM | 600 nM | 56500 nM | – | no activity | < 10000 nM
